Assay results: patent US12303468B2, “Compositions comprising one or more (bio)-alkanediols with antioxidants” (Symrise AG, priority 2020, dated 2025)
Where “and” joins values, the source holds several entries; their conditions need not be identical. Identical values can stand only once. Each block holds one compound with its values, some of them ahead of it.

Legend:
[1] = Oxipres test (induction period, product protection); assay type: physicochemical; conditions: for antioxidative boosting (prolonged induction time, less rancidity and reduced acid value), in words: alkanediol in combination with antioxidant (tocopherol) in sunflower oil
Procedure: To evaluate the influence of 1,2-alkanediols or of 2,3-alkanediols on the antioxidative capacity of antioxidants, two different tests were performed: • (1) Oxipres treatment to simulate product protection; and • (2) Evaluation of reactive oxygen species (ROS) for skin protection.
The following tests were performed with sunflower oil +/− antioxidant and +/− alkanediols. […] Treating it with heat and oxygen triggers and accelerates oxidation easily.
An Oxipres test was performed in order to evaluate the antioxidative capacity of different test samples as described below.
Test procedure: For the evaluation of the antioxidative capacity of the above-described samples, an Oxipres test was conducted. The Oxipres method is bases on oxygen consumption at high temperatures and pressures and allows the determination of oxidative resistance (shelf life) of e.g. oils. The test runs under elevated pressure and temperature, where the process is accelerated. In the Oxipres test the sample is placed inside a hermetically closed iron vessel that is subjected to high oxygen pressures and temperatures of 90 to 120° C. […] The consumption of oxygen results in a pressure drop in the vessel during the test. Higher decrease of pressure indicates more consumption of oxygen and higher oxidation of the test product. Oils with a high degree of unsaturation are most susceptible to autoxidation.
In the test, the antioxidants are oxidized preferentially before the oxidizable fat or oil is oxidized. Thus, the antioxidants protect the fat or oil against oxidation. After this there is a sudden and large consumption of oxygen and the fat becomes rancid. This can be defined by the induction period (IP) in hours. A lower IP correlates with a faster oxidation.
Equipment: The tests were performed with an Oxipres device ex Mikrolab. The instrument is a modification of the bomb method (ASTM D941), which is based on oxidation with oxygen.

[2] = tested on: IL-8 produced and secreted by HaCaT cells; assay: Interleukin 8 (IL-8) ELISA; assay type: cell-based, human; conditions: IL 1-alpha stimulated
Procedure: Interleukin 8 (IL-8) is increased by various kinds of stress including UV and oxidant stress, which thereby cause the recruitment of inflammatory cells and induces further increase in oxidant stress mediators, making it a key parameter in localized inflammation.
An IL-8 ELISA (enzyme lined immunosorbance assay) was performed in order to determine IL-8 produced and secreted by cells from the cell supernatant utilizing antibodies detecting the IL-8.
Experimental procedure: HaCaT cells (spontaneously transformed aneuploid immortal keratinocyte cell line from adult human skin) were seeded in a black 96 well microplate with transparent bottom and incubated at 37° C. After 24 hours the supernatant is decanted and the test samples (100 μl/well) are added and incubated for 24 hours at 37° C. Then IL 1-alpha (1 ng/ml per 100 μl/well) was added as stimulant. Then the medium was changed (100 μl/well) and incubated at 37° C. After 4 h a 70 μl sample was recovered from the cell supernatant. Thereafter, an IL-8 ELISA is carried out with the cell supernatant sample.
The lower the IL-8 concentration the better the […] effect of the antioxidant of the sample.

[3] = tested on: reactive oxygen species (ROS) on monolayer cells; assay: DCF assay on monolayer cells (2D); assay type: cell-based; conditions: 300 μM H2O2, Untreated = 100
Procedure: A dichlorofluorescein test (DCF) assay was performed in order to determine the amount of reactive oxygen species (ROS) on monolayer cells with different test samples as described below.
DCF assay—assay principle (2D): One procedure to quantify intracellular radicals in a cell model is by using the dichlorofluorescein (DCF) assay. […] By intracellular esterases and oxidation, the nonfluorescent H2DCFDA is converted to the highly fluorescent 2′,7′-dichlorofluorescein (DCF). The nonfluorescent fluorescein (2′,7′-dichlorofluorescein diacetate (DCFH-DA)) passes the cell membranes. In the cytoplasm, it is cleaved by intracellular esterases and cannot leave the cell in this form. The oxidation by intracellularly existing ROS (reactive oxygen species) modifies the molecule so that will become DCF and emits fluorescence. ROS stimulation is done by exposure to 300 μM H2O2 for 1 h.
The determination of the anti-oxidative capacity is performed in 96-well microplates from Nunc (Wiesbaden, Germany) and with the microplate reader “Spark” from Tecan (Crailsheim, Germany). Cells are seeded in a black 96 well microplate with transparent bottom and incubated at 37° C. After 24 h the supernatant is decanted and fresh media with 0.1% FBS is added. Further 24 hours later the supernatant is decanted again and the test samples are added and incubated for 24 h. As a positive control Trolox is always co-tested. 300 μM H2O2 is used as ROS source (1 h exposure) The emitted fluorescence is measured from bottom of well at EX/EM 485/528 nm.
The antioxidative capacity is expressed as relative reduction of the stimulated control, which can be determined by rule of proportion in combination with the control.

[4] = tested on: reactive oxygen species (ROS) on ex vivo skin; assay: DCF assay on ex vivo skin biopsies, aqueous/alcoholic (ethanolic) test samples; assay type: cell-based; conditions: only the vehicle and the alkanediol, no antioxidant
Procedure: A dichlorofluorescein test (DCF) assay was performed in order to determine the amount of reactive oxygen species (ROS) on ex vivo skin treated with different test samples in a lipophilic or an aqueous/alcoholic system as described below.
DCF assay—assay principle: Ex vivo skin was incubated with 2′,7′-dichlorodihydrofluorescein diacetate at 37° C., 5% CO2. After PBS washing, samples were exposed or not to cumene hydroperoxide. Immediately after exposure, ex vivo skin samples were frozen in liquid nitrogen and 5 μm cryostat sections were made and fixed with acetone to allow the visualisation of fluorescence generated by ROS in cells of the reconstructed skins. […] Green fluorescence was quantified in ex vivo skin using ImageJ software. The depth of immunostaining was measured as follows: green DCFH-DE positive cells were automatically detected using Histolab software and the distance between dermal epidermal junction and the deepest positive cells were measured in each condition. Means were compared using a student's test. […]
The image acquisition was performed by using Olympus BX51 microscope and Olympus DP70 camera. For each skin sample two skin sections have been taken and the related fluorescent images acquired and analyzed. Thus, for each test condition, 12 images have been acquired and analyzed (i.e. 12 data). The analysis of fluorescence has been performed within the dermis area. […]

[5] = Solubility of alkanediols in water; assay type: physicochemical; conditions: visual assessment at ambient temperature after 24 h storage at 5° C.
Source text: The water solubility of a substance is the saturation mass concentration of the substance in water at a given temperature. The determination of the solubility in water relates to essentially pure substances which are stable in water and not volatile. The determination of the water solubility of the alkanediols is further described in the following Example 7.
For the determination of the maximum water solubility of an alkanediol. water and different concentrations of the respective alkanediol were blended by stirring. […] The determination of whether the alkanediol has dissolved in water is based entirely on visual observation.

[6] = in combination with Ascorbyl Palmitate in sunflower oil
[7] = in combination with Hydroxyacetophenone in sunflower oil

induction period, in words [1, 6]: remarkably prolonged induction periods
induction period, in words [1, 7]: remarkably prolonged induction periods
Maximum solubility in water [5]: 2.5 % by weight
Structure (SMILES): CCCCCC(O)CO (stereo not shown) [1,2-heptanediol]
IL-8 concentration ([2]; 500 μM): 959.8 pg/mL and 959.85 pg/mL
Mean, ROS concentration (%) ([3]; 500 μM): 112%
antioxidative boosting (prolonged induction time, less rancidity and reduced acid value), in words [1]: distinguished efficacy for antioxidative boosting
antioxidative efficacy, in words [4]: do not have an antioxidative efficacy

induction period, in words [1, 6]: remarkably prolonged induction periods
induction period, in words [1, 7]: remarkably prolonged induction periods
Maximum solubility in water [5]: 3.6 % by weight
Structure (SMILES): CCCCC(O)C(C)O (stereo not shown) [2,3-heptanediol]
antioxidative efficacy, in words [4]: do not have an antioxidative efficacy

induction period, in words ([1]; sunflower oil, tocopherol series (samples 1-43), versus comparative samples of the series): prolonged induction periods
Structure (SMILES): CCCC(O)C(C)O (stereo not shown) [2,3-hexanediol]

Maximum solubility in water [5]: 0.3 % by weight
Structure (SMILES): CCCCCCC(O)C(C)O (stereo not shown) [2,3-nonanediol]

Maximum solubility in water [5]: 1.5 % by weight
Structure (SMILES): CCCCCC(O)C(C)O (stereo not shown) [2,3-octanediol]
Mean, ROS concentration (%) ([3]; 500 μM): 98%
antioxidative boosting (prolonged induction time, less rancidity and reduced acid value), in words [1]: distinguished efficacy for antioxidative boosting

Maximum solubility in water [5]: 50 % by weight
Structure (SMILES): CCCCC(O)CO (stereo not shown) [Hydrolite ® 6]

More lines, now with the values behind:

Structure (SMILES): CCCCCCCCC(O)CO (stereo not shown) [1,2-decanediol]
antioxidative boosting (prolonged induction time, less rancidity and reduced acid value), in words [1]: distinguished efficacy for antioxidative boosting

Structure (SMILES): CCCCCCCC(O)CO (stereo not shown) [1,2-nonediol, 1,2-nonanediol]
antioxidative boosting (prolonged induction time, less rancidity and reduced acid value), in words [1]: distinguished efficacy for antioxidative boosting
Maximum solubility in water [5]: 0.1 % by weight

Structure (SMILES): NCCC(=O)N[C@@H](Cc1cnc[nH]1)C(=O)O [Carnosine]
Mean, ROS concentration (%) ([3]; 10 mM): 96%

Structure (SMILES): CCCCCCC(O)CO (stereo not shown) [Hydrolite ® 8]
Maximum solubility in water [5]: 0.5 % by weight

Structure (SMILES): CC1=C(/C=C/C(C)=C/C=C/C(C)=C/C(=O)OCC(=O)C(C)(C)C)C(C)(C)CCC1 [Hydroxypinacolone Retinoate]
Mean, ROS concentration (%) ([3]; 5 μM + 500 μM): 53%

Structure (SMILES): CC1=C(/C=C/C(C)=C/C=C/C(C)=C/CO)C(C)(C)CCC1 [all trans-Retinol, reference compound]
IL-8 concentration ([2]; 50 μM): 670.8 pg/mL and 670.84 pg/mL
Mean, ROS concentration (%) ([3]; 50 μM): 100%

Structure (SMILES): Cc1c(C)c2c(c(C)c1O)CC[C@@](C)(CCC[C@H](C)CCC[C@H](C)CCCC(C)C)O2 [alpha-Tocopherol]
Mean, ROS concentration (%) ([3]; 50 μM): 45%
Mean, ROS concentration (%) ([3]; 100 μM): 58%

Structure (SMILES): N=C(N)NCCC[C@H](NC(=O)C[C@H](N)C(=O)O)C(=O)O [beta-aspartyl arginine]
Mean, ROS concentration (%) ([3]; 10000 μM): 103%
